Reference: ChEMBL document CHEMBL5725623, “4-azaindole derivatives” (2018)

Assay: Positive allosteric modulator pEC50 values and antagonist pIC50 values for each compound were then determined. […] Data analysis was carried out using a 4 parameter logistic nonlinear regression model with the XLFIT (IDBS) excel add-in10. 1-10 Examples 76-80 and 82-89 were tested in a slightly modified procedure. The points of modification and the alternate reagents, concentrations or equipment employed in these examples were: 1200 μg/ml hygromycin B; 2G418 not added; 3CELLBANKER 1; 410E6; 5 40 μl; 6 1 in 99; 7 20 μl; 8FDSS6000 (Hamamatsu Photonics); 9(480Ex, 540Em); 10Spotfire (TIBCO).As measured by the above in vitro assay, compound Examples 1 to 105 are positive allosteric modulators of mAChR M1 displaying the pEC50 values for positive allosteric modulation given in Table 2.
Details: 0.5 h

In order of falling EC50:
1. O=C(NC1CCC(F)(F)C[C@H]1O)c1cn(Cc2ccc(F)cc2)c2cccnc12 (stereo partly specified)  794 nM
2. COc1cc(Cn2cc(C(=O)NC3CCOC[C@@H]3O)c3nccc(C)c32)ccn1 (stereo partly specified)  50.1 nM
3. Cc1ccnc2c(C(=O)NC3CCOC[C@@H]3O)cn(Cc3ccc(F)cc3)c12 (stereo partly specified)  15.8 nM
4. COc1ccc(Cn2cc(C(=O)NC3CCOC[C@@H]3O)c3nccc(C)c32)cc1F (stereo partly specified)  12.6 nM
5. COc1ccc(Cn2cc(C(=O)NC3CCOC[C@@H]3O)c3nccc(Cl)c32)cc1 (stereo partly specified)  12.6 nM
6. COc1ccc(Cn2cc(C(=O)NC3CCOC[C@@H]3O)c3nccc(C)c32)cc1 (stereo partly specified)  10 nM
